According to patent US20130345257A1, “COMPOSITION FOR LUPUS NEPHRITIS AND METHODS OF MAKING AND USING THE SAME” (The Regents of the University of California, priority 2012, published 2013):
“Also recorded” adds a separate entry of the source.

Experiments:
[1] = system: patients; conditions: dose of 2 g daily; dose-dependent; cited from earlier work
[2] = system: CD4+ regulatory T cells (CD4+ Foxp3+) in PBMC; test: CD4+ Tregs within PBMC of treated mice; format: in vivo, mouse; conditions: LAQ 1 or 25 mg/kg; compared to the other groups
Source text: FIG. 7 depicts an exemplary embodiment: A) illustrates gating technique used to identify CD4+ regulatory T cells (CD4+ Tregs), which are shown as the dotted cloud inside the box insert and also labeled as CD4+ Foxp3+.

[3] = system: monocyte/macrophages (CD11b^+Ly6C^−Ly6G^−) and CD4^+ T cells; test: Intracellular cytokines in splenocytes of treated mice after TLR agonist or PMA plus ionomycin stimulation; format: cell-based, mouse; conditions: vs vehicle
Protocol: For intracellular cytokines, whole splenocytes were stimulated with a) LPS (1 μg/mL) (Sigma), imiquimod, a toll like receptor 7 (TLR7) agonist, or ODN, a TLR9 agonist (both at 10 μg/mL) in 2% FBS RPMI 1640 for 24 hours in the presence of monensin (BioLegend) for the last 12 hours; or b) phorbol 12-myristate 13-acetate (PMA, 50 ng/ml) plus ionomycin (500 ng/ml) in the presence of monensin for 5 hours. Monensin was used to prevent cytokine secretion and optimize intracellular staining Intracellular expression of cytokines in CD4^+ cells and macrophages (CD11b^+Ly6C^−Ly6G^−) was analyzed by intracellular flow cytometry. Single-cell suspensions from spleen or kidneys were stained for extracellular markers for 20 min at 4° C. in PBS/1% FBS. Intracellular staining for Foxp3 and cytokines was performed using the Foxp3 Fixation/Permeabilization kit according to the manufacturer's protocol (eBioscience). Cells were acquired on a FACS LSR II (BD) and data was analyzed using Flowjo (Tree Star).

[4] = system: monocyte/macrophages (CD11b^+Ly6C^−Ly6G^−); test: Expression of activation/costimulatory molecules on splenic monocyte/macrophages of treated mice; format: cell-based, mouse
Source text: Spleens were removed 7 weeks after initiation of laquinimod treatment in PU^lo animals. Splenocytes were stimulated with TLR4 (LPS), 7 (imiquimod), or 9 (ODN) agonists, or PMA plus ionomycin, as described. FACS plots are representative of one experiment showing intracellular production of (A) IL-10 or (B) TNFα by monocyte/macrophages (CD11b+Ly6C−Ly6G−), and (C) IFNγ by CD4^+ T cells from laquinimod- or vehicle-treated mice. Graphs of IL-10, TNFα, and IFNγ production represent mean±SEM of cytokine production (n=6/gp, *p<0.05, **p<0.01, ***p<0.001 using two way ANOVA). […] Graphs depict mean±SD of mean fluorescence intensity (MFI) and are from three independent experiments with similar results. (n=4/gp, *p<0.05, **p<0.01, ***p<0.001 using t test).
Single-cell suspensions from spleen or kidneys were stained for extracellular markers for 20 min at 4° C. in PBS/1% FBS. Intracellular staining for Foxp3 and cytokines was performed using the Foxp3 Fixation/Permeabilization kit according to the manufacturer's protocol (eBioscience). Cells were acquired on a FACS LSR II (BD) and data was analyzed using Flowjo (Tree Star).

| Compound | Patients with gastrointestinal side effects [1] | Percentage of CD4+ Tregs within PBMC [2] | IL-10^+ M/M ([3]; splenic M/M after TLR agonist stimulation, PU^lo animals, 7 weeks of treatment) | M/M producing TNF-α ([3]; splenic M/M after TLR agonist stimulation, listed as laquinimod) | CD4^+ T cells producing IFN-γ ([3]; splenocytes, PMA plus ionomycin) | Expression of MHC 11, CD86 and CD80 on M/M after in vitro stimulation with LPS ([4]; LPS 1 μg/mL) | Ex vivo expression of MHC 11, CD86 and CD40 on M/M ([4]; vs vehicle-treated animals, listed as laquinimod) |
| --- | --- | --- | --- | --- | --- | --- | --- |
| COc1c(C)c2c(c(O)c1C/C=C(\C)CCC(=O)OCCN1CCOCC1)C(=O)OC2 [MMF, mycophenolate mofetil, reference compound] | up to 20% |  |  |  |  |  |  |
| CCN(C(=O)c1c(O)c2c(Cl)cccc2n(C)c1=O)c1ccccc1 [LAQ, 5-chloro-N-ethyl-4-hydroxy-1-methyl-2-oxo-N-phenyl-1,2-dihydroquinoline-3-carboxamide] |  | significantly higher percent | Significantly more | unable to respond; also recorded: significantly fewer | significantly fewer | significantly lower | decreased expression; also recorded: down-regulated |
